Source: ChEMBL document CHEMBL3991601, “The target landscape of clinical kinase drugs” (Science, 2017)
Activity calls are given as the source filed them. Rule as the data show it, for most assays here: actives have a measured Kd and inactives only a lower limit.

Columns and labels:
[1] = biological target: Tyrosine-protein kinase Fyn (Homo sapiens, UniProt P06241)
[2] = biological target: Tyrosine-protein kinase Lyn (Homo sapiens, UniProt P07948)
[3] = biological target: T1, Serine/threonine-protein kinase STK11 (Homo sapiens, UniProt Q15831)
T1 sequence (Q15831 whole entry): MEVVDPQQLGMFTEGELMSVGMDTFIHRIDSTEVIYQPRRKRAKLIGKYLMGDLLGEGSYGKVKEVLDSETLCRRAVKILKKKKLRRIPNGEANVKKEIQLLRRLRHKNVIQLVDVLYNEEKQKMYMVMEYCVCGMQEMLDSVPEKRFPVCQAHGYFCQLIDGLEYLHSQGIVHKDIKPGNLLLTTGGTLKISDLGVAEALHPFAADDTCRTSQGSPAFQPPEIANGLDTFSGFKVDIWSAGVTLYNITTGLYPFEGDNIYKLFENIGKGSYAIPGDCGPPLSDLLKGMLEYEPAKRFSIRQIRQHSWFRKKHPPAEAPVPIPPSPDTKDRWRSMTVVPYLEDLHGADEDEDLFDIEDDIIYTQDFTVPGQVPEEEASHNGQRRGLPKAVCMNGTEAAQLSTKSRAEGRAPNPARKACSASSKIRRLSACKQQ

[4] = biological target: S-adenosylmethionine synthase isoform type-2 (Homo sapiens, UniProt P31153)
[5] = biological target: Ribosomal protein S6 kinase alpha-1 (Homo sapiens, UniProt Q15418)
[6] = biological target: Serine/threonine-protein kinase 10 (Homo sapiens, UniProt O94804)
[7] = biological target: T2, Cyclin-G-associated kinase (Homo sapiens, UniProt O14976)
T2 sequence (O14976 whole entry): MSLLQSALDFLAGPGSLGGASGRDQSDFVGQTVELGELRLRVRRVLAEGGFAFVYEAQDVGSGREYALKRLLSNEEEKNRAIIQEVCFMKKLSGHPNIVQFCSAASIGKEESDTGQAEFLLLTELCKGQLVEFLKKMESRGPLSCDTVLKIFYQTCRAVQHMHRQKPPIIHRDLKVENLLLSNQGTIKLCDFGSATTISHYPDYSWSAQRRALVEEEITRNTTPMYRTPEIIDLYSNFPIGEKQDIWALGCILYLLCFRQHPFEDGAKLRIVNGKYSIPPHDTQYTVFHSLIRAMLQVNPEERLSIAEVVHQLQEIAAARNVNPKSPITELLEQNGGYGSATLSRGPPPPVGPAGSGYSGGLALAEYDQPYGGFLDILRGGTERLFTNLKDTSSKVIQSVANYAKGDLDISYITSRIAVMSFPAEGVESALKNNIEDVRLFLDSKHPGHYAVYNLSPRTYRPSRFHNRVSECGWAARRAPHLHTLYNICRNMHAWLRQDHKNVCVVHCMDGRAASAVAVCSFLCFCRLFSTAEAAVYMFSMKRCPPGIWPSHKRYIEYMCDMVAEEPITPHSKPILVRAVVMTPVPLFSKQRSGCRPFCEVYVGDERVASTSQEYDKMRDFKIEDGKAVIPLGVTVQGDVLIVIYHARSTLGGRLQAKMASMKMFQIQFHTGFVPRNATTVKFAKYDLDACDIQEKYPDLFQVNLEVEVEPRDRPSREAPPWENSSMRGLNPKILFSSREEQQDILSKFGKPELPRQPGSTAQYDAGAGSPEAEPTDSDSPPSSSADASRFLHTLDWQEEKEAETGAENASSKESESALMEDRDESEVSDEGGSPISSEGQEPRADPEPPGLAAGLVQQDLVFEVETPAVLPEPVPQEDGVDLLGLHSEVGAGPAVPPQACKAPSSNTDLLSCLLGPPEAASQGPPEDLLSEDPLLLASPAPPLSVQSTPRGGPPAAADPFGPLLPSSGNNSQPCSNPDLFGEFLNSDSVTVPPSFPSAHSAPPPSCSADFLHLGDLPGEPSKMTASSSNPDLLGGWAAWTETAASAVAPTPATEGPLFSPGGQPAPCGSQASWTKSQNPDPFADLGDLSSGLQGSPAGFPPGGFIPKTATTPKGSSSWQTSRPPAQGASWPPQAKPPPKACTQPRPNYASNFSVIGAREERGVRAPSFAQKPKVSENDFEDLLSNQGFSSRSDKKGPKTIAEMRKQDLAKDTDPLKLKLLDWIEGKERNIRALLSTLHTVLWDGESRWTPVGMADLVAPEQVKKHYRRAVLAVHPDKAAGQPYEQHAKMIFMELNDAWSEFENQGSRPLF

[8] = biological target: TGF-beta receptor type-2 (Homo sapiens, UniProt P37173)
[9] = biological target: Serine/threonine-protein kinase N1 (Homo sapiens, UniProt Q16512)
[10] = biological target: Receptor-interacting serine/threonine-protein kinase 3 (Homo sapiens, UniProt Q9Y572)
[11] = biological target: T3, Mitogen-activated protein kinase kinase kinase kinase 2 (Homo sapiens, UniProt Q12851)
T3 sequence (Q12851 whole entry): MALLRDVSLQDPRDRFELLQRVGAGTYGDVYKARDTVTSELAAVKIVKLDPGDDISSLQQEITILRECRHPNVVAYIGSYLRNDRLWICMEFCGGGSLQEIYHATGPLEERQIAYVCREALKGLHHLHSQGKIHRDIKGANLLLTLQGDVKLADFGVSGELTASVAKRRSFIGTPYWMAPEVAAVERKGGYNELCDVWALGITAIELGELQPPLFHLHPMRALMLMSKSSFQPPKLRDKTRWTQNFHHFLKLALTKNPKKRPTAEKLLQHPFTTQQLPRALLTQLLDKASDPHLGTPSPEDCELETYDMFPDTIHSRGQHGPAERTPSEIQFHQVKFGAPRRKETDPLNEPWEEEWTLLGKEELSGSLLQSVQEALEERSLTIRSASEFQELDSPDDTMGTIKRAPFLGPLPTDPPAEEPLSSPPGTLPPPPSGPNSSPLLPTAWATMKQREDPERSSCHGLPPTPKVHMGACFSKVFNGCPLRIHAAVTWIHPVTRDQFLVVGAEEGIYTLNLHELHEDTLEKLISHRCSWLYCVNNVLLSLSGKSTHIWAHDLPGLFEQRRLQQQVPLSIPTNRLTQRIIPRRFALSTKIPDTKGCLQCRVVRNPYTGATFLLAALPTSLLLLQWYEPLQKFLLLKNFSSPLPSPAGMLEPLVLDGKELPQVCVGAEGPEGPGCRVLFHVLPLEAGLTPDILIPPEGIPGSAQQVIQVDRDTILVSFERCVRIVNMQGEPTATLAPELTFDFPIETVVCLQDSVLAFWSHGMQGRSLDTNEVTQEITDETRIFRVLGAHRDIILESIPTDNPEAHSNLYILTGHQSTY
Also: in the data inactive means no Kd found up to 30 µM.

Sequence of TGF-beta receptor type-2 (P37173 whole entry): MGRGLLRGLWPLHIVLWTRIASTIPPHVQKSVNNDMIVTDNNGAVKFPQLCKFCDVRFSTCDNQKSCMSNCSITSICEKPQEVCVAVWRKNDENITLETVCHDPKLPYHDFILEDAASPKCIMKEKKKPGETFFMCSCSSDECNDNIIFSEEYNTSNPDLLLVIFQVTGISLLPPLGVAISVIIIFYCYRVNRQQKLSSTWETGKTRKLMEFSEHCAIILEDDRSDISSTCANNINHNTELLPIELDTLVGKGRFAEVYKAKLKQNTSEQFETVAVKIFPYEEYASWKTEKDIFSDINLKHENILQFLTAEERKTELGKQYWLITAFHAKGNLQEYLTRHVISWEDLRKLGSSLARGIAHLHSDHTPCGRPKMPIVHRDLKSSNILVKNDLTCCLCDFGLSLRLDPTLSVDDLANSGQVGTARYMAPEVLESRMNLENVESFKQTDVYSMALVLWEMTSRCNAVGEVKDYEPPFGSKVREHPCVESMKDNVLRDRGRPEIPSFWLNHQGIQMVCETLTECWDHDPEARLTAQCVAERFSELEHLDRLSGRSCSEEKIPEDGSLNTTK
Sequence of Tyrosine-protein kinase Fyn (P06241 whole entry): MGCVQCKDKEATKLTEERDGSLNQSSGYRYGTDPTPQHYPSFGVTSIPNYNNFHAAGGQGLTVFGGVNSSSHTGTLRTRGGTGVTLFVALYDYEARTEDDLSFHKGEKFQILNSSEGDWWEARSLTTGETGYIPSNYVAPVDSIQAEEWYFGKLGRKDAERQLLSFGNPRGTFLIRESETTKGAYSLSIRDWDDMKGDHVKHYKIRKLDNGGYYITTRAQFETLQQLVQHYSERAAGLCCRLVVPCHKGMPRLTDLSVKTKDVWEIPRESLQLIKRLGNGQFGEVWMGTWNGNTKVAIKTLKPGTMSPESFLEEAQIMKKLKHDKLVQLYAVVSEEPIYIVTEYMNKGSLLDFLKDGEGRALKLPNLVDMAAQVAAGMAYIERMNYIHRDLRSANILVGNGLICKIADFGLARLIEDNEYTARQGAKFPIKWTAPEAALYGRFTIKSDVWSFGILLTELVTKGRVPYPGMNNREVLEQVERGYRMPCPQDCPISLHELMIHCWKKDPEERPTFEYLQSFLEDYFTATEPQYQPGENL
Sequence of S-adenosylmethionine synthase isoform type-2 (P31153 whole entry, canonical isoform): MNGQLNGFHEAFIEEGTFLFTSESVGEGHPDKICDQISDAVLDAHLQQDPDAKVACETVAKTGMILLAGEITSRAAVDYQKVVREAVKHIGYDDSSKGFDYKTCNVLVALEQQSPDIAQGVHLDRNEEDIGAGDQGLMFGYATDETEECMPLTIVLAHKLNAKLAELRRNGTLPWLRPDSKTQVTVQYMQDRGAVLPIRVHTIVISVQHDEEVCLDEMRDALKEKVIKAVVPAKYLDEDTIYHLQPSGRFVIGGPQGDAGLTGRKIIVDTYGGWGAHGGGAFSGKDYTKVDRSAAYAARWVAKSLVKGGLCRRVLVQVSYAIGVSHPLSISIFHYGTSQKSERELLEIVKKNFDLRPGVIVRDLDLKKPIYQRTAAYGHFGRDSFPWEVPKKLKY
Sequence of Serine/threonine-protein kinase 10 (O94804 whole entry): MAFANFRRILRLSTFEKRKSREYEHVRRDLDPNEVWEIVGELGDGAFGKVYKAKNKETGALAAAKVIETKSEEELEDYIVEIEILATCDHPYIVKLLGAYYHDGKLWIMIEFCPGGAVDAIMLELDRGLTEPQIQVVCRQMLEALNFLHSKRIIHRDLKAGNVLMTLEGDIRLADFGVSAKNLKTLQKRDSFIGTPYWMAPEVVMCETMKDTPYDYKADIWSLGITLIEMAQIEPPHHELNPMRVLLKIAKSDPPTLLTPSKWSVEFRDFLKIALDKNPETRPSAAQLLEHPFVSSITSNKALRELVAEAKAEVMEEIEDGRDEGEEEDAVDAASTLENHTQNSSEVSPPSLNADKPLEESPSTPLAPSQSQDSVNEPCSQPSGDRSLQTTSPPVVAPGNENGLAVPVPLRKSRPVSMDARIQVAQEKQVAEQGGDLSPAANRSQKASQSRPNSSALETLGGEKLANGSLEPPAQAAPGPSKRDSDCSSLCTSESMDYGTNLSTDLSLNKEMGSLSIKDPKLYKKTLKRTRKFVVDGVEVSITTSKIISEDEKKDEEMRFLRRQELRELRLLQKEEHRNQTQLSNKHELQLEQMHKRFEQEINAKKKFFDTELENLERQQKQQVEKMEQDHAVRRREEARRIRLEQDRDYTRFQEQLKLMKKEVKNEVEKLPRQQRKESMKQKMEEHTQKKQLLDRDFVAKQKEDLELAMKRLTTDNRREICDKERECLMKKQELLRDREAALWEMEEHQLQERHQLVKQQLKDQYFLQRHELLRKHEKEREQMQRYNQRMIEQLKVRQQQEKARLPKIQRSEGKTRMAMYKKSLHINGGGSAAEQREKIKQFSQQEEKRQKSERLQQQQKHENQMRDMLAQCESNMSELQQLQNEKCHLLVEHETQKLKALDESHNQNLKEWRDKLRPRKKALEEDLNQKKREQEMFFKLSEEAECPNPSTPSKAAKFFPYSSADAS
Sequence of Receptor-interacting serine/threonine-protein kinase 3 (Q9Y572 whole entry): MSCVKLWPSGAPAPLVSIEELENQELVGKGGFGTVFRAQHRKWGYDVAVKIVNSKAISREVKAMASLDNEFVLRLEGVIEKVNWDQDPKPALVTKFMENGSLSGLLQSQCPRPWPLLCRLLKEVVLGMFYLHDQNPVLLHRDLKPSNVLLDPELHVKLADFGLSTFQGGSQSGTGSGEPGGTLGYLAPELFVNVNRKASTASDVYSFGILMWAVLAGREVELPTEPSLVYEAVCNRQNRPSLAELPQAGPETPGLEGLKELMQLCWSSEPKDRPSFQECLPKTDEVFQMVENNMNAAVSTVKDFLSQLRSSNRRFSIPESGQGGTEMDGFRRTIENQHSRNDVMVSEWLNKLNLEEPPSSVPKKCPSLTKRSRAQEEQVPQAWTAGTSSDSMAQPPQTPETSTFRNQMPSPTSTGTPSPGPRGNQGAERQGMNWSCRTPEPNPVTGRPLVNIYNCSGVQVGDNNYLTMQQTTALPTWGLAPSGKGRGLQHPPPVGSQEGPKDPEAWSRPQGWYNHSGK
Sequence of Ribosomal protein S6 kinase alpha-1 (Q15418 whole entry): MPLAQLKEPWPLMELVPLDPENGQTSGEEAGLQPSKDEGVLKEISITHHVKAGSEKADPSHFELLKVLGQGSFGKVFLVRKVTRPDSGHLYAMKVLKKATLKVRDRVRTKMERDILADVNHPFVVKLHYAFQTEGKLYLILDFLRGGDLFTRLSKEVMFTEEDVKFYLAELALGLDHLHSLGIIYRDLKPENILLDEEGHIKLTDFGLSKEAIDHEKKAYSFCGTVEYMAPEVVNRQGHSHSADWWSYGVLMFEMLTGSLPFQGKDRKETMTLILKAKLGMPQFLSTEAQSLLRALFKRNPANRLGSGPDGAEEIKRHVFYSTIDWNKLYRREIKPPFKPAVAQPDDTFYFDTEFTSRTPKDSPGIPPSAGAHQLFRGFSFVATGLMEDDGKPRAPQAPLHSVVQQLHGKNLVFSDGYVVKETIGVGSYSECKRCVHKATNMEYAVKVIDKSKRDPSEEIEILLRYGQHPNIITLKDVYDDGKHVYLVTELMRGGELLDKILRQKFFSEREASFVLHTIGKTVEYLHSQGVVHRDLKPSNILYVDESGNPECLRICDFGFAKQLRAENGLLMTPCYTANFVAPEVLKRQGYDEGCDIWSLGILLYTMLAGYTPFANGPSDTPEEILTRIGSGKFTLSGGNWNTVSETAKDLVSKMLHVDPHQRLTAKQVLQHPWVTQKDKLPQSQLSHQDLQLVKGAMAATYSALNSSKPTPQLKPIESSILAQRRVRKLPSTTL
Sequence of Tyrosine-protein kinase Lyn (P07948 whole entry): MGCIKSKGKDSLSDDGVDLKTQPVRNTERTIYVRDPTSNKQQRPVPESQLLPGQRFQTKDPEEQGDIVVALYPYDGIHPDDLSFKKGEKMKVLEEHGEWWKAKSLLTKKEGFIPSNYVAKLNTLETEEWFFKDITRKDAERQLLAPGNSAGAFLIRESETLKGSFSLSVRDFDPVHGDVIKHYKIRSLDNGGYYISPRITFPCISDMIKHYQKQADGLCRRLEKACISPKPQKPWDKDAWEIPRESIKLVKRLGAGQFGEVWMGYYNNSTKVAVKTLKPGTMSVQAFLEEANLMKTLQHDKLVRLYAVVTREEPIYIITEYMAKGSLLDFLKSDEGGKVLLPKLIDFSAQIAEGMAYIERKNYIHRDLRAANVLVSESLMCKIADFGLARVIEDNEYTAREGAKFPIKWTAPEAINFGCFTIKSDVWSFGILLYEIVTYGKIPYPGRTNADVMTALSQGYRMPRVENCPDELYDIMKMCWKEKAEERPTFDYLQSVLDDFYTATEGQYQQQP

Kd [1] | Kd [2] | Kd [3] | Kd [4] | Kd [5] | Kd [6] | Kd [7] | Kd [8] | Kd [9] | Kd [10] | Kd [11] | SMILES
> 30 µM (inactive) | > 30 µM (inactive) | > 30 µM (inactive) | > 30 µM (inactive) | > 30 µM (inactive) | > 30 µM (inactive) | > 30 µM (inactive) | > 30 µM (inactive) | > 30 µM (inactive) | > 30 µM (inactive) | > 30 µM (inactive) | CN1N=C(N)c2cn([C@@H]3O[C@H](COP(=O)(O)O)[C@@H](O)[C@H]3O)c3ncnc1c23 [TRICIRIBINE PHOSPHATE]
> 30 µM (inactive) | > 30 µM (inactive) | > 30 µM (inactive) | > 30 µM (inactive) | > 30 µM (inactive) | > 30 µM (inactive) | > 30 µM (inactive) | > 30 µM (inactive) | > 30 µM (inactive) | > 30 µM (inactive) | > 30 µM (inactive) | CC(C)Nc1cc(-c2c[nH]c(C(=O)N[C@H](CO)c3cccc(Cl)c3)c2)c(Cl)cn1 [ULIXERTINIB]
> 30 µM (inactive) | > 30 µM (inactive) | > 30 µM (inactive) | > 30 µM (inactive) | > 30 µM (inactive) | > 30 µM (inactive) | > 30 µM (inactive) | > 30 µM (inactive) | > 30 µM (inactive) | > 30 µM (inactive) | > 30 µM (inactive) | CC[C@@H]1C(=O)N(C)c2cnc(Nc3ccc(C(=O)N[C@H]4CC[C@H](N5CCN(CC6CC6)CC5)CC4)cc3OC)nc2N1C(C)C [VOLASERTIB]
> 30 µM (inactive) | > 30 µM (inactive) | > 30 µM (inactive) | > 30 µM (inactive) | > 30 µM (inactive) | > 30 µM (inactive) | 0.05 µM (active) | > 30 µM (inactive) | > 30 µM (inactive) | > 30 µM (inactive) | > 30 µM (inactive) | O=C(Nc1ccc(-c2ccnc(Nc3ccc(N4CCOCC4)cc3)n2)cc1)C1CCCN1 (centres undefined) [XL-019]
